Here are results for 9 compounds from US12612360B2 (Sanofi, priority 2020, dated 2026).

Counter-ions that a name gives are not always drawn.

The assay addresses T1, ERα (Homo sapiens, UniProt P03372).
T1 construct: host or cells: MCF7
T1 sequence (P03372 1-595): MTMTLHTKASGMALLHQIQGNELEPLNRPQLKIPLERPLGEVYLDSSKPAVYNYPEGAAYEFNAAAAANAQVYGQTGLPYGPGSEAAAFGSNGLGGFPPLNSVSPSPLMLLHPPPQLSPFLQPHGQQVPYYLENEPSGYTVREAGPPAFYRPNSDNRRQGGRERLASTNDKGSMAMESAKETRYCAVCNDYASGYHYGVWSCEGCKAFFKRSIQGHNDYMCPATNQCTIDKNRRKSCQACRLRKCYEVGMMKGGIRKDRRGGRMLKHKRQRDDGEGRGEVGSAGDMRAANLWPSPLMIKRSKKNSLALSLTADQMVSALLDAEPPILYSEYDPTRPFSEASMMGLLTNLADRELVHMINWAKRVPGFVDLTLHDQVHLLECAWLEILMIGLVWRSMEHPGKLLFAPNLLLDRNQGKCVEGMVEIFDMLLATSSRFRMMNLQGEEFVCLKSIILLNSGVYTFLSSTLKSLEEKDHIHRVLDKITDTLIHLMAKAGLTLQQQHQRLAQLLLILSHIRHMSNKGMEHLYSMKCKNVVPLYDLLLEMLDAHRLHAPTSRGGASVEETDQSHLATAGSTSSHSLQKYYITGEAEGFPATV
As to the kind of experiment: Estrogen receptor degradation activity: breast cancer cell ERα in cell western assay (MCF7 cells). The note with it: for % Degradation At 0.3 μM: 4 hours, relative to fulvestrant 0.1 μM positive control; for DC50: 4 hours post compound addition, concentration which degrades 50% of the estrogen receptor, read-out: Degradation IC50. Format: cell-based. The method, boiled down:
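In-cell western readout: ERα immunofluorescence (Alexa 488) normalised to DNA signal (Syto-64) after formalin fixation. Compounds dosed for 4 h on MCF7 cells in stripped-serum, phenol-red-free medium over nine 1:5 steps, 0.3 to […] final; fulvestrant 0.1 μM control. IC50 in nM for 50% ERα degradation.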

As for `Cc1c(C2=C(c3ccc(C=C4CN(CCC(F)(F)F)C4)cc3)c3ccc(C(=O)O)cc3CCC2)ccc(F)c1F` [Example 112, 8-(3,4-difluoro-2-methylphenyl)-9-(4-((1-(3,3,3-trifluoropropyl)azetidin-3-ylidene)methyl)phenyl)-6,7-dihydro-5H-benzo[7]annulene-3-carboxylic acid], the “% Degradation At 0.3 μM” value is recorded as 100% and the DC50 came to 27.8 nM.

On to `Cc1cc(C(F)(F)F)ccc1C1=C(c2ccc(C=C3CN(CCC(F)(F)F)C3)cc2)c2ccc(C(=O)O)cc2CCC1` [Example 113, 8-(2-methyl-4-(trifluoromethyl)phenyl)-9-(4-((1-(3,3,3-trifluoropropyl)azetidin-3-ylidene)methyl)phenyl)-6,7-dihydro-5H-benzo[7]annulene-3-carboxylic acid], for which the “% Degradation At 0.3 μM” value is on record as 90% and the DC50 turned out to be 0.3 nM.

In the case of `O=C(O)c1ccc2c(c1)OCCC(c1ccc(Cl)cc1Cl)=C2c1ccc(C=C2CN(CCCF)C2)cc1` [Example 114, 4-(2,4-Dichlorophenyl)-5-(4-((1-(3-fluoropropyl)azetidin-3-ylidene)methyl)phenyl)-2,3-dihydrobenzo[b]oxepine-8-carboxylic acid hydrochloride], the “% Degradation At 0.3 μM” value is given as 91% and the DC50 amounted to 0.4 nM.

Take `Cl.O=C(O)c1ccc2c(c1)SCCC(c1ccc(Cl)cc1Cl)=C2c1ccc(C=C2CN(CCCF)C2)cc1` [Example 115, 4-(2,4-dichlorophenyl)-5-[4-[[1-(3-fluoropropyl)azetidin-3-ylidene]methyl]phenyl]-2,3-dihydro-1-benzothiepine-8-carboxylic acid; hydrochloride]: the “% Degradation At 0.3 μM” value is 100% and the DC50 came out at 120 nM.

On to `Cc1cccc(C2=C(c3ccc(C=C4CN(CCC(F)F)C4)cc3)c3ccc(C(=O)O)cc3CCC2)c1C(F)(F)F` [Example 116, 9-(4-((1-(3,3-difluoropropyl)azetidin-3-ylidene)methyl)phenyl)-8-(3-methyl-2-(trifluoromethyl)phenyl)-6,7-dihydro-5H-benzo[7]annulene-3-carboxylic acid], for which the “% Degradation At 0.3 μM” value amounted to 90% and the DC50 stood at 0.7 nM.

`[2H]C([2H])(CC(F)F)N1CC(=Cc2ccc(C3=C(c4ccc(Cl)cc4Cl)CCCc4cc(C(=O)O)ccc43)cc2)C1` [Example 117, 8-(2,4-dichlorophenyl)-9-(4-((1-(3,3-difluoropropyl-1,1-d2)azetidin-3-ylidene)methyl)phenyl)-6,7-dihydro-5H-benzo[7]annulene-3-carboxylic acid]: the “% Degradation At 0.3 μM” value was 90% and the DC50 was found to be 0.9 nM.

As for `Cc1cccc(C2=C(c3ccc(C=C4CN(CCCF)C4)cc3)c3ccc(C(=O)O)cc3CCC2)c1C(F)(F)F` [Example 118, 9-(4-((1-(3-fluoropropyl)azetidin-3-ylidene)methyl)phenyl)-8-(3-methyl-2-(trifluoromethyl)phenyl)-6,7-dihydro-5H-benzo[7]annulene-3-carboxylic acid], the “% Degradation At 0.3 μM” value turned out to be 93% and the DC50 was 0.4 nM.

As for `Cc1ccc(C(F)(F)F)c(C2=C(c3ccc(C=C4CN(CCCF)C4)cc3)c3ccc(C(=O)O)cc3CCC2)c1` [Example 119, 9-(4-((1-(3-fluoropropyl)azetidin-3-ylidene)methyl)phenyl)-8-(5-methyl-2-(trifluoromethyl)phenyl)-6,7-dihydro-5H-benzo[7]annulene-3-carboxylic acid], the “% Degradation At 0.3 μM” value stood at 94% and the DC50 amounted to 0.9 nM.

For `FCCCN1CC(=Cc2ccc(C3=C(c4ccccc4Cl)CCCc4ccccc43)cc2)C1` [Example 120, 3-(4-(8-(2-chlorophenyl)-6,7-dihydro-5H-benzo[7]annulen-9-yl)benzylidene)-1-(3-fluoropropyl)azetidine], the “% Degradation At 0.3 μM” value came out at 98% and the DC50 was 2.68 nM.
